Data set [1] concerns CYP9J5. The settings on record: read-out: IC50 CYP9J5, inhibition of diethoxyfluorescein metabolism, cited from earlier work.
In data set [2] the test system is P450 panel (CYP6M2, CYP6P3, CYP6P9a, CYP6P2, CYP9J5, CYP6Z3, CYP6Z2). Briefly: P450 inhibition, whole P450 panel (mean across P450s). Particulars: for pIC50: Anopheles gambiae and Anopheles funestus, mean of the seven P450s of Table S2, read-out: IC50 Mean across P450s. The format is biochemical, Anopheles gambiae and An. funestus. An excerpt:
(§1) Cytochrome P450 inhibition assays using fluorogenic probe substrates have become commonplace in drug discovery screening cascades and are a rapid method of screening for insecticide interactions with mosquito P450s to predict insecticide binding, metabolism, cross-resistance and synergism. In this study, the half maximal inhibitory concentration (IC50), which provides a value for inhibition of each P450 by each pyrethroid (also referred to as ‘binding affinity’), and the percentage depletion, which gives a value for metabolism of each pyrethroid by each P450 (also referred to as vulnerability to metabolic attack), were both included as parameters to establish a P450s structural activity relationship model. This model was used to understand both the chemistry of the pyrethroids and the interaction with mosquito P450s that function as monooxygenases in metabolic resistance, to predict cross-resistance liabilities in vivo. […] A low percentage depletion indicates low metabolism of the pyrethroid, which means that it may be less vulnerable to resistance mediated by P450s.
In addition, inhibition activity data for these pyrethroids exposed to CYP6Z3 from the An. gambiae Kisumu strain were also generated (Additional file 1).

In data set [3] the test system is Anopheles sinensis. The arrangement: method as in PMID 24159535. The settings on record: resistance ratios using LC50 values from a susceptible strain; most susceptible to bifenthrin, cyfluthrin and etofenprox, in that order; ref [55]; cited from earlier work.
Data set [4] deals with CYP6M2, CYP6P3 and CYP6P9a. Briefly: Pyrethroid metabolism (insecticide depletion), across CYP6M2, CYP6P3 and CYP6P9a. The format is in vitro ADME, Anopheles gambiae and An. funestus. The settings on record: for vulnerability for metabolic attack by the three enzymes, rank in words: CYP6P3, CYP6M2 and CYP6P9a, among the six pyrethroids.
From the text: as §1, with “In” for “Cytochrome P450 inhibition assays using fluorogenic probe substrates have become commonplace in drug discovery screening cascades and are a rapid method of screening for insecticide interactions with mosquito P450s to predict insecticide binding, metabolism, cross-resistance and synergism. In”
The values for percentage depletion (metabolism) of each pyrethroid by three of the enzymes CYP6M2, CYP6P3 and CYP6P9a, which were expressed in a single plasmid construct, were also extracted from the same sources and used for the comparative analysis.

Data set [5] has as its system CYP6P9a. The settings on record: read-out: IC50 CYP6P9a, inhibition of diethoxyfluorescein metabolism, cited from earlier work.
For data set [6], the system named is CYP6M2. The settings on record: Incubation time 2h; mean ± SD; ref [38], [41]; cited from earlier work.
The test system of data set [7] is Anopheles arabiensis. Particulars: Sudan, WHO Bioassay 1998, cited from earlier work.
In data set [8] the test system is Ae. aegypti. Briefly: WHO adult susceptibility test on field samples, Ae. aegypti. Format: in vivo, Aedes aegypti. The settings on record: standard diagnostic doses. An excerpt:
The analyses conducted using data from An. gambiae (s.l.) samples were repeated using data from the An. funestus subgroup, An. arabiensis, An. coluzzii, An. funestus and An. gambiae samples (Additional file 2). The same approach was also used for susceptibility test data from Aedes albopictus and Ae. aegypti to investigate whether the same relationships could be detected in these vectors of arboviruses, as detailed in Additional file 3.
Additional File 3: Cross-resistance to pyrethroids within wild populations of Aedes vectors […]
If structural diversity within the pyrethroids is also associated with divergence in resistance within the Aedes vectors of arboviruses, this would lend weight to the findings for malaria vectors presented in the main manusc ript. Like the Anopheles vectors, target-site mutations and metabolic resistance are thought to be the main resistance mechanisms in Aedes mosquitoes. At least ten mutations in the Aedes aegypti Vgsc gene have been identified and the most widespread mutation, […]
mutations and is also associated with DDT resistance. More recently, the V1016G mutation has been found in Ae. albopictus in Viet Nam and Italy, and both this allele and the F1534C and F1534S […]
expression of cytochrome P450s has also been implicated in pyrethroid resistance within Aedes mosquitoes and there is evidence that metabolic resistance can confer cross -resistance to multiple pyrethroids. For example, over-expression of CYP9J28 is associated with metabolic resistance to […]
target site- and P450-mediated resistance in Ae. aegypti strains found variation in resistance to seven pyrethroids and hypothesised that some patterns of resistance could be linked to structural differences, but also noted that general conclusions are challenging to make without a greater number of compounds with a single modification to compare. No studies of structure activity relationships using a wide range of pyrethroids and P450s from Aedes mosquitoes have been conducted to-date, but data on resistance in wild populations are available. A wider range of pyrethroids are more typically tested by studies of resistance in Aedes vectors, compared to Anopheles vectors, although these studies are also more varied in terms of diagnostic dose, bioass ay method and life cycle stage, making comparisons across studies difficult. Here we selected studies that used a common experimental design and investigated correlations in resistance to pairs of pyrethroids mirroring part of the work on Anopheles vectors presented in the main manuscript.
We identified all instances within a public insecticide resistance database where an Aedes field sample had been subdivided among tests for different pyrethroids. We then identified the most commonly used bioassay type across the new pyrethroid dataset, which was the WHO adult susceptibility test as described for malaria vectors, and the most commonly used diagnostic dose for […]
each compound (Table S2). […]
removed. Paired results were then extracted, and the mean values for the Pearson’s correlation coefficient were calculated for each pyrethroid pair using 1,000 bootstaps in SPSS Statistics v25.
Table S5. Diagnostic doses and data volumes for each pyrethroid.
Pyrethroid Most common dose Number of data points
The number of data points available for each pyrethroid from an Ae. aegypti sample that was used to test at least one other pyrethroid, using standard WHO susceptibility tests and standard diagnostic doses, is given.

Setting [9] is: footnote b, ref Yunta et al. 2019[10].
Setting [10] is: recombinant P450s, probe diethoxyfluorescein.
The mark [11] stands for this setting: mean ± SD across CYP6M2, CYP6P3, CYP6P9a.
Setting [12] is: ID 200047, F1, larval collection, 9/2007-11/2007, Elmaygoma, ref Seidahmed OME et al. Eastern Mediterranean Health Journal. 2012;18(7):769-76.
[13] abbreviates: Pair 3 λ-cyhalothrin vs etofenprox, N 21 paired Ae. aegypti samples.
The mark [14] stands for this setting: Pair 8 permethrin vs λ-cyhalothrin, N 56 paired Ae. aegypti samples.
[15] abbreviates: Pair 9 deltamethrin vs λ-cyhalothrin, N 67 paired Ae. aegypti samples.
Where [16] appears, read: footnote a, ref Yunta et al. 2016[8].
The mark [17] stands for this setting: Pair 1 deltamethrin vs etofenprox, N 29 paired Ae. aegypti samples.
Where [18] appears, read: Pair 6 deltamethrin vs permethrin, N 136 paired Ae. aegypti samples.
Where [19] appears, read: Pair 4 permethrin vs etofenprox, N 31 paired Ae. aegypti samples.

pIC50: −log10 of the molar value. Entries after “also recorded” stand apart in the source; their conditions may differ. Like-named read-outs stand apart in the source and are kept apart here.

What is called pIC50 is −log10 of the IC50, conventionally taken in molar units. Consider `Cc1c(COC(=O)[C@@H]2[C@H](/C=C(\Cl)C(F)(F)F)C2(C)C)cccc1-c1ccccc1` (racemic) [Bifenthrin, bifenthrin], for which the pIC50 in data set [1] (setting [9]) is 5.60; in data set [2] (setting [10]), 5.01; in data set [5] (setting [9]), 5.07. The “binding to the P450s panel, rank in words” value in data set [2] (among the six pyrethroids) was “lowest binding”. The “susceptibility of larvae, rank in words” value in data set [3] is “most susceptible”. Besides, the “vulnerability for metabolic attack by the three enzymes, rank in words” value (from here on “vulnerability for metabolic attack”) in data set [4] is “lowest vulnerability”. For the same compound, the “% Insecticide depletion Mean across P450s” value in data set [4] (setting [11]) amounted to 56.3%. For the same compound, in data set [6], the “% Insecticide depletion CYP6M2” value was 38.9 ± 1.6%.

In the case of `CC1(C)[C@H](C(=O)O[C@H](C#N)c2cccc(Oc3ccccc3)c2)[C@@H]1/C=C(\Cl)C(F)(F)F` (racemic) [λ-Cyhalothrin, λ-cyhalothrin], the mortality in data set [7] (setting [12]) is 98.9. Moreover, the pIC50 was 5.38 in data set [1] (setting [9]), 5.14 in data set [2] (setting [10]) and 5.43 in data set [5] (setting [9]). Also, the “% Insecticide depletion Mean across P450s” value in data set [4] (setting [11]) is on record as 66.6 ± 17.0%. Further, the “Mean percent mortality (SE)” value is reported as 72.40 (4.52) percent in data set [8] (setting [13]); 66.90 (5.01) percent in data set [8] (Pair 7 λ-cyhalothrin vs cyfluthrin, N 25 paired Ae. aegypti samples); 84.52 (3.40) percent in data set [8] (setting [14]); 74.16 (3.55) percent in data set [8] (setting [15]). In data set [6], the “% Insecticide depletion CYP6M2” value is recorded as 49.4 ± 0.5%.

For the compound `CC1(C)[C@H](C(=O)O[C@H](C#N)c2cccc(Oc3ccccc3)c2)[C@@H]1C=C(Br)Br` [Deltamethrin, deltamethrin], the mortality in data set [7] (F0, larval collection, 10/2009-11/2009, El Managil, ref Abdalla H et al. Parasites Vectors. 2014;7:213) is listed as 92; in data set [7] (F0, larval collection, 10/2009-11/2009, Rufaa, ref Abdalla H et al. Parasites Vectors. 2014;7:213), 94; in data set [7] (F0, larval collection, 10/2009-11/2009, Wad El Hadad, ref Abdalla H et al. Parasites Vectors. 2014;7:213) it was 94; in data set [7] (F0, larval collection, 10/2010-11/2010, Wad El Hadad, ref Abdalla H et al. Parasites Vectors. 2014;7:213), 71; in data set [7] (F0, larval collection, 10/2010-11/2010, Wad Medani, ref Abdalla H et al. Parasites Vectors. 2014;7:213), 80; in data set [7] (setting [12]), 99.5. Further, the figures for the pIC50 in data set [1] (setting [16]), in data set [2] and in data set [5] (setting [16]) were 5.21, 5.26 and 5.59, respectively. Moreover, in data set [4] (setting [11]), the “% Insecticide depletion Mean across P450s” value stood at 83.5 ± 24.2%. Further, the “Mean percent mortality (SE)” value in data set [8] (setting [17]) was 90.68 (2.80) percent; in data set [8] (setting [18]), 88.10 (1.66) percent; in data set [8] (setting [15]), 85.64 (2.66) percent; in data set [8] (Pair 10 deltamethrin vs cyfluthrin, N 72 paired Ae. aegypti samples), 88.43 (1.94) percent.

With `CCOc1ccc(C(C)(C)COCc2cccc(Oc3ccccc3)c2)cc1` [Etofenprox, etofenprox], the pIC50 in data set [1] (setting [9]) is 5.10; in data set [2] (setting [10]) it was 5.15; in data set [5] (setting [9]), 5.09. Also, the “susceptibility of larvae, rank in words” value in data set [3] is listed as “most susceptible”. Moreover, the “vulnerability for metabolic attack” value in data set [4] is “most vulnerable”. The metabolism in words entry in data set [4] (by CYP6P3, CYP6M2 and CYP6P9a) is on record as “strongly metabolised; also recorded: most depleted”. Moreover, the “% Insecticide depletion Mean across P450s” value in data set [4] (setting [11]) is on record as 89.0 ± 17.5%. Moreover, the “Mean percent mortality (SE)” value in data set [8] (setting [17]) was 21.59 (4.75) percent; in data set [8] (Pair 2 cyfluthrin vs etofenprox, N 22 paired Ae. aegypti samples), 21.14 (5.32) percent; in data set [8] (setting [13]), 16.81 (4.43) percent; in data set [8] (setting [19]) it was 21.09 (4.89) percent. In addition, in data set [6], the “% Insecticide depletion CYP6M2” value is 68.8 ± 1.1%.

Turning to `CC1(C)C(C=C(Cl)Cl)C1C(=O)OCc1cccc(Oc2ccccc2)c1` (centres unmarked) [Permethrin, permethrin], in data set [7] (setting [12]), the mortality is 96. The pIC50 is 5.19 in data set [1] (setting [16]), 5.12 in data set [2] (setting [10]) and 5.24 in data set [5] (setting [16]). Also, the “susceptibility of larvae, rank in words” value in data set [3] is recorded as “least susceptible”. Moreover, the “% Insecticide depletion Mean across P450s” value in data set [4] (Anopheles gambiae and An. funestus) is 82.1 ± 21.3%. The “vulnerability for metabolic attack” value in data set [4] is recorded as “most vulnerable”. In addition, the “Mean percent mortality (SE)” value is on record as 63.39 (5.36) percent in data set [8] (setting [19]); 59.01 (3.18) percent in data set [8] (Pair 5 permethrin vs cyfluthrin, N 79 paired Ae. aegypti samples); 61.44 (2.40) percent in data set [8] (setting [18]); 70.10 (3.99) percent in data set [8] (setting [14]). Further, the “% Insecticide depletion CYP6M2” value in data set [6] is given as 58.5 ± 2.2%.

(Values after publication PMC7893915, “Assessing cross-resistance within the pyrethroids in terms of their interactions with key cytochrome P450 enzymes and resistance in vector populations” (Parasites & Vectors, 2021).)
